Experimental data taken from US4240957A, “Dipeptide derivatives and their production” (Shionogi & Co., Ltd., priority 1974, dated 1980).

What was measured:
Format in all cases: in vivo
DS male mice [1] = assay: Anti-pentylenetetrazole activity; settings: for Anti-pentylenetetrazol activity, ED50: given orally 60 minutes prior to pentylenetetrazol 125 mg/kg s.c., complete protection against mortality, observed two hours; for times more potent than diazepam in anti-pentylenetetrazol activity: relative to diazepam (Compound No. 5)
From the text: (1) Anti-pentylenetetrazole activity:
The convulsions were disregarded.

DS male mice [2] = assay: Taming activity (inhibition of electroshock-induced fighting); settings: for Taming activity ED50: administered 60 minutes prior, inhibition of fighting responses, 5 pairs of mice; for times more potent than diazepam in taming activity: relative to diazepam (Compound No. 5)
Description: This test was measured on DS male mice. […] These pairs of mice were selected in the morning and used for drug test in the afternoon. The test compound was administered to both mice of the pairs 60 minutes prior to the experiment. Results were obtained as the mean percentage of inhibition of fighting responses in a group of 5 pairs and shown by ED50 [Tedeschi, et al.: J. Pharmacol Exp. Thev., 125, 28-34 (1959)].

DS male mice [3] = assay: Rotarod performance activity; settings: fall from rod within less than 2 minutes; 10 mice per dose
Description: (3) Rotarod performance activity:
This test was measured on DS male mice. The mouse was put on a scraped rod of wood, 3 cm in diameter, turning at the rate of five rotations per minute. The mice that could remain on the rod for three or more minutes in successive trials were selected and placed in a group of 10 mice for each dose. If the mouse fell down from the rod within less than 2 minutes, the test compound was considered to be effective. Results were shown by ED50 [Dunham, et al.: J. Am. Pharm. Assoc., 46, 208 (1957)].

[4] = relative to chlordiazepoxide (Compound No. 4)

Row | SMILES | Anti-pentylenetetrazol activity, ED50 (DS male mice [1]) [mg/kg] | times more potent than diazepam in anti-pentylenetetrazol activity (DS male mice [1]) [times] | Taming activity ED50 (DS male mice [2]) [mg/kg] | times more potent than diazepam in taming activity (DS male mice [2]) [times] | Rotarod performance ED50 (DS male mice [3]) [mg/kg] | times more potent than chlordiazepoxide in anti-pentylenetetrazol activity (DS male mice [1]; [4]) [times] | times more potent than chlordiazepoxide in taming activity (DS male mice [2]; [4]) [times]
1 | CN(C(=O)CNC(=O)CN)c1ccc(Cl)cc1C(=O)c1ccccc1F.Cl [Compound No. 3, 2-o-fluorobenzoyl-4-chloro-N-methyl-N^α -glycyl-glycinanilide hydrochloride] | 0.33 | 2 to 4 | 1.6 | 2 to 4 | 17.0 |  | 
2 | CN(C(=O)CNC(=O)CN)c1ccc(Cl)cc1C(=O)c1ccccc1Cl.O [Compound No. 2, 2-o-chlorobenzoyl-4-chloro-N-methyl-N^α -glycyl-glycinanilide hydrate] | 0.58 | 2 to 4 | 3.0 | 2 to 4 |  |  | 
3 | CN(C(=O)CNC(=O)CN)c1ccc(Cl)cc1C(=O)c1ccccc1 [Compound No. 1, 2-benzoyl-4-chloro-N-methyl-N^α -glycyl-glycinanilide] | 1.0 |  |  |  |  | 2 to 3 | 2 to 3
